Test results: paper PMC11571207, “Stereorandomized Oncocins with Preserved Ribosome Binding and Antibacterial Activity” (Journal of Medicinal Chemistry, 2024)
Converted amounts (≈) assume the structure as drawn. Where two headings read alike, the source gives them in different places. Non-standard residues stand in square brackets, D forms with d. Residues, ends and D or L forms follow the SMILES beside them.

Columns and labels:
[1] = tested on: P. aeruginosa PA14 4.13 (phoQ); conditions: for MIC P. aeruginosa PA14 4.13: supplement CSV
human red blood cells = assay: Hemolysis assay, minimum hemolytic concentration
K. pneumoniae NCTC 418 = assay: microbe, parasite or virus in culture; conditions: for MIC K. pneumoniae NCTC418: supplement CSV
Outline: (§1)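 Read-out was visible growth after MTT addition, the MIC being the lowest inhibitory peptide concentration. Bacteria grown to log phase in LB were exposed in MH medium to peptide from 64 μg/mL in twofold dilutions for 15-18h at 37°C.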

S. aureus COL (MRSA) = assay: microbe, parasite or virus in culture; conditions: for MIC S. aureus COL (MRSA): supplement CSV
Outline: as §1

A. baumannii ATCC19606 = assay: microbe, parasite or virus in culture; conditions: for MIC A. baumannii ATCC19606: supplement CSV
Outline: as §1

E. coli W3110 = assay: microbe, parasite or virus in culture; conditions: for MIC E. coli W3110: supplement CSV
Outline: as §1

P. aeruginosa PAO1 = assay: microbe, parasite or virus in culture; conditions: for MIC P. aeruginosa PAO1: supplement CSV
Outline: as §1

[2] = tested on: P. aeruginosa PA14 4.18 (pmrB); conditions: for MIC P. aeruginosa PA14 4.18: supplement CSV
P. aeruginosa ZEM9A = assay: microbe, parasite or virus in culture; conditions: for MIC P. aeruginosa ZEM9A: supplement CSV
Outline: (§2)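 Minimal inhibitory concentrations come from broth microdilution in MH medium, with a top peptide concentration of 64 μg/mL halved serially.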

P. aeruginosa ZEM-1A = assay: microbe, parasite or virus in culture; conditions: for MIC P. aeruginosa ZEM-1A: supplement CSV
Outline: as §2

P. aeruginosa PA14 = assay: microbe, parasite or virus in culture; conditions: for MIC P. aeruginosa PA14: supplement CSV
Outline: as §2

[3] = tested on: P. aeruginosa PA14 2P4 (pmrB); assay: microbe, parasite or virus in culture; conditions: for MIC P. aeruginosa PA14 2P4: supplement CSV
Outline: as §2

E. cloacae = assay: microbe, parasite or virus in culture; conditions: for MIC E. cloacae: supplement CSV
Outline: as §2

K. pneumoniae OXA-48 = assay: microbe, parasite or virus in culture; conditions: for MIC K. pneumoniae OXA-48: supplement CSV
Outline: as §2

[4] = polymyxin B resistant strain, 12.5% MHB pH 7.4, 16–20 h at 37 °C
[5] = polymyxin B resistant strain, full MHB pH 7.4, 16–20 h at 37 °C

CC[C@H](C)[C@H](NC(=O)[C@H](CCCNC(=N)N)NC(=O)[C@H](CCCNC(=N)N)NC(=O)[C@@H]1CCCN1C(=O)[C@@H]1CCCN1C(=O)[C@H](CCCNC(=N)N)NC(=O)[C@@H]1CCCN1C(=O)[C@H](CCCNC(=N)N)NC(=O)[C@@H]1CCCN1C(=O)[C@@H](CC(C)C)NC(=O)[C@H](Cc1ccc(O)cc1)NC(=O)[C@@H]1CCCN1C(=O)[C@@H]1CCCN1C(=O)[C@H](CCCCN)NC(=O)[C@H](CC(=O)O)NC(=O)[C@@H](N)C(C)C)C(=O)N[C@@H](Cc1ccc(O)cc1)C(=O)N[C@@H](CC(N)=O)C(=O)N[C@@H](CCCNC(=N)N)C(N)=O [DL7-Onc] (H-VDKPPY[dL]PRPRPPRRIYNR-NH2)
MIC P. aeruginosa PA14 4.13 (phoQ), 12.5% MHB [1, 4]: >32/>32 μg/mL | MIC P. aeruginosa PA14 4.13 (phoQ), full MHB [1, 5]: >32/>32 μg/mL | MIC P. aeruginosa PA14 4.13 ([1]; 12.5% MH pH 7.4): >32 µg/mL | MIC P. aeruginosa PA14 4.13 ([1]; full MH pH 7.4): >32 µg/mL | Haemolysis on hRBC, MHC (human red blood cells; 2.5% human red blood cells (final) in 10 mM phosphate, 150 mM NaCl, pH 7.4, 25 °C, 4 h, visual inspection): >1000 µg/mL | MHC human red blood cells (human red blood cells; supplement CSV): >1000 µg/mL | MIC K. pneumoniae, 12.5% MHB (K. pneumoniae NCTC 418; K. pneumoniae NCTC 418, 12.5% Müller–Hinton medium, 16–20 h at 37 °C): > 16 µg/mL | MIC K. pneumoniae, Full MHB (K. pneumoniae NCTC 418; K. pneumoniae NCTC 418, full Müller–Hinton medium, 16–20 h at 37 °C): > 64 µg/mL | MIC K. pneumoniae NCTC418 (K. pneumoniae NCTC 418; 12.5% MH pH 7.4): >16 µg/mL | MIC K. pneumoniae NCTC418 (K. pneumoniae NCTC 418; full MH pH 7.4): >64 µg/mL | MIC S. aureus, 12.5% MHB (S. aureus COL (MRSA); S. aureus COL (MRSA), 12.5% Müller–Hinton medium, 16–20 h at 37 °C): >64 / >64 μg/mL | MIC S. aureus, Full MHB (S. aureus COL (MRSA); S. aureus COL (MRSA), full Müller–Hinton medium, 16–20 h at 37 °C): >64 / >64 μg/mL | MIC S. aureus COL (MRSA) (S. aureus COL (MRSA); 12.5% MH pH 7.4): >64 µg/mL | MIC S. aureus COL (MRSA) (S. aureus COL (MRSA); full MH pH 7.4): >64 µg/mL | MIC A. baumannii, 12.5% MHB (A. baumannii ATCC19606; A. baumannii ATCC19606, 12.5% Müller–Hinton medium, 16–20 h at 37 °C): > 16 µg/mL | MIC A. baumannii, Full MHB (A. baumannii ATCC19606; A. baumannii ATCC19606, full Müller–Hinton medium, 16–20 h at 37 °C): > 64 µg/mL | MIC A. baumannii ATCC19606 (A. baumannii ATCC19606; 12.5% MH pH 7.4): >16 µg/mL | MIC A. baumannii ATCC19606 (A. baumannii ATCC19606; full MH pH 7.4): >64 µg/mL | MIC E. coli, 12.5% MHB (E. coli W3110; E. coli W3110, 12.5% Müller–Hinton medium, 16–20 h at 37 °C, broth microdilution): 8 µg/mL (≈ 3.35 µM) | MIC E. coli, Full MHB (E. coli W3110; E. coli W3110, full Müller–Hinton medium, 16–20 h at 37 °C, broth microdilution): > 64 µg/mL | MIC E. coli W3110 (E. coli W3110; 12.5% MH pH 7.4): 8 µg/mL (≈ 3.35 µM) | MIC E. coli W3110 (E. coli W3110; full MH pH 7.4): >64 µg/mL | MIC P. aeruginosa, 12.5% MHB (P. aeruginosa PAO1; P. aeruginosa PAO1, 12.5% Müller–Hinton medium, 16–20 h at 37 °C): > 16 µg/mL | MIC P. aeruginosa, Full MHB (P. aeruginosa PAO1; P. aeruginosa PAO1, full Müller–Hinton medium, 16–20 h at 37 °C): > 64 µg/mL | MIC P. aeruginosa PAO1 (P. aeruginosa PAO1; 12.5% MH pH 7.4): >16 µg/mL | MIC P. aeruginosa PAO1 (P. aeruginosa PAO1; full MH pH 7.4): >64 µg/mL | MIC P. aeruginosa PA14 4.18 (pmrB), 12.5% MHB [2, 4]: >32/>32 μg/mL | MIC P. aeruginosa PA14 4.18 (pmrB), full MHB [2, 5]: >32/>32 μg/mL | MIC P. aeruginosa PA14 4.18 ([2]; 12.5% MH pH 7.4): >32 µg/mL | MIC P. aeruginosa PA14 4.18 ([2]; full MH pH 7.4): >32 µg/mL | MIC P. aeruginosa ZEM9A, 12.5% MHB (P. aeruginosa ZEM9A; clinical isolate, 12.5% MHB pH 7.4, 16–20 h at 37 °C): >64/>64 μg/mL | MIC P. aeruginosa ZEM9A, full MHB (P. aeruginosa ZEM9A; clinical isolate, full MHB pH 7.4, 16–20 h at 37 °C): >64/>64 μg/mL | MIC P. aeruginosa ZEM9A (P. aeruginosa ZEM9A; 12.5% MH pH 7.4): >64 µg/mL | MIC P. aeruginosa ZEM9A (P. aeruginosa ZEM9A; full MH pH 7.4): >64 µg/mL | MIC P. aeruginosa ZEM-1A, 12.5% MHB (P. aeruginosa ZEM-1A; clinical isolate, 12.5% MHB pH 7.4, 16–20 h at 37 °C, cells marked c: single measurement (in duplicates)): >64/>64 ^c μg/mL | MIC P. aeruginosa ZEM-1A, full MHB (P. aeruginosa ZEM-1A; clinical isolate, full MHB pH 7.4, 16–20 h at 37 °C, cells marked c: single measurement (in duplicates)): >64/>64 ^c μg/mL | MIC P. aeruginosa ZEM-1A (P. aeruginosa ZEM-1A; 12.5% MH pH 7.4): >64 µg/mL | MIC P. aeruginosa ZEM-1A (P. aeruginosa ZEM-1A; full MH pH 7.4): >64 µg/mL | MIC P. aeruginosa PA14, 12.5% MHB (P. aeruginosa PA14; 12.5% MHB pH 7.4, 16–20 h at 37 °C, two different duplicate MIC determinations): >32/>32 μg/mL | MIC P. aeruginosa PA14, full MHB (P. aeruginosa PA14; full MHB pH 7.4, 16–20 h at 37 °C, two different duplicate MIC determinations): >32/>32 μg/mL | MIC P. aeruginosa PA14 (P. aeruginosa PA14; 12.5% MH pH 7.4): >32 µg/mL | MIC P. aeruginosa PA14 (P. aeruginosa PA14; full MH pH 7.4): >32 µg/mL | MIC P. aeruginosa PA14 2P4 (pmrB), 12.5% MHB [3, 4]: 32 µg/mL (≈ 13.4 µM) | MIC P. aeruginosa PA14 2P4 (pmrB), full MHB [3, 5]: > 64 µg/mL | MIC P. aeruginosa PA14 2P4 ([3]; 12.5% MH pH 7.4): 32 µg/mL (≈ 13.4 µM) | MIC P. aeruginosa PA14 2P4 ([3]; full MH pH 7.4): >64 µg/mL | MIC E. cloacae, 12.5% MHB (E. cloacae; 12.5% MHB pH 7.4, 16–20 h at 37 °C): 32 µg/mL (≈ 13.4 µM) | MIC E. cloacae, full MHB (E. cloacae; full MHB pH 7.4, 16–20 h at 37 °C): > 64 µg/mL | MIC E. cloacae (E. cloacae; 12.5% MH pH 7.4): 32 µg/mL (≈ 13.4 µM) | MIC E. cloacae (E. cloacae; full MH pH 7.4): >64 µg/mL | MIC K. pneumoniae OXA-48, 12.5% MHB (K. pneumoniae OXA-48; carbapenem-resistant, 12.5% MHB pH 7.4, 16–20 h at 37 °C): >64/>64 μg/mL | MIC K. pneumoniae OXA-48, full MHB (K. pneumoniae OXA-48; carbapenem-resistant, full MHB pH 7.4, 16–20 h at 37 °C): >64/>64 μg/mL | MIC K. pneumoniae OXA-48 (K. pneumoniae OXA-48; 12.5% MH pH 7.4): >64 µg/mL | MIC K. pneumoniae OXA-48 (K. pneumoniae OXA-48; full MH pH 7.4): >64 µg/mL
